# Experimental data taken from US9670482B2, “Multispecific peptides” (BICYCLE THERAPEUTICS LIMITED, priority 2009, dated 2017).
# Residues, ends and D or L forms follow the SMILES beside them.
# Assays:
# Type in all cases: in vitro ADME
# Cathepsin G = biological target: T1, Cathepsin G (Homo sapiens, UniProt P08311); test: Peptide conjugate digestion with Cathepsin G; design: key to the marks not given beside the values; settings: 37° C. for 1 hr
# T1 sequence (P08311 21-244): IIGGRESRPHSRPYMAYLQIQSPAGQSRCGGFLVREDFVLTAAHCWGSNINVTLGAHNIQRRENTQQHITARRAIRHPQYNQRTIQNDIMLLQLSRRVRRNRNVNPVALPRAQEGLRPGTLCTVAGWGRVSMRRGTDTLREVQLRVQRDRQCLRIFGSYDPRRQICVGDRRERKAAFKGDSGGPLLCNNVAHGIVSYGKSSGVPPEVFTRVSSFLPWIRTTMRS
# Description: (§1) Linear peptides (PK15 and CG4L1-PK15L1) were first treated with iodoacetamide prior to digestion studies. The peptides (ca 3-4 mg) were purified by HPLC (semi-prep Proteo column as described in general methods), and the HPLC fraction (ca 3 ml) was neutralised with an equal volume of 50 mM ammonium bicarbonate. […] The reaction mixture was concentrated (rotary evaporator) and re-purified by HPLC as above.
# (§2) Peptides (linear and conjugates) were dissolved in water at a concentration of 1 mg/ml, giving an effective concentration of −0.5 mM stock solutions. 2 μl of peptide conjugates (˜30 μM in reactions depending on actual molecular weight) where dissolved in reaction buffer (see below) in a total reaction volume of 30 μl, followed by the protease, and samples were incubated at 37° C. for 1 hr. 10 μl aliquots were quenched into 20 μl of 10% dichloroacetic acid in MeCN/H2O (1:1) and stored at −20° C. for 30 minutes, centrifuged at 4° C. (13000 rpm) for 5 minutes and then spotted onto MALDI-TOF mass spectrometer plate for analysis.
# (§3) All reactions at 37° C. Cathepsin G and kalikrein reactions were carried out in 10 mM Tris pH 7.4, 150 mM NaCl, 10 mM MgCl2, 1 mM CaCl2, 0.1% BSA, 0.01% Triton X100, 5% DMSO. Chymotrypsin reactions were carried out in 100 mM Tris pH 7.4, 10 mM CaCl2. Pronase and proteinase K reactions were carried out in 100 mM Tris pH 7.4, 0.5% SDS. Subtilisin reactions were carried out in 50 mM KH2PO4 pH 7.5. Trypsin reactions were carried out in 67 mM sodium phosphate pH 7.6. Reaction conditions with serum involve dissolving the peptide in 1×PBS (total volume 24 μl) and 6 μl of human serum added to the reaction.
# Chymotrypsin = test: Peptide conjugate digestion with Chymotrypsin; settings: 37° C. for 1 hr
# Description: as §1, §2, §3
# Kalikrein = Kalikrein (Homo sapiens, UniProt P03952); test: Peptide conjugate digestion with Kalikrein; design: digestion with Kalikrein: key to the marks not given beside the values; settings: for digestion with Kalikrein: 37° C. for 1 hr
# Description: as §1, §2, §3
# Pronase = test: Peptide conjugate digestion with Pronase; design: key to the marks not given beside the values; settings: 37° C. for 1 hr
# Description: as §1, §2, §3
# Proteinase K = Proteinase K (Parengyodontium album, UniProt P06873); test: Peptide conjugate digestion with Proteinase K; design: key to the marks not given beside the values; settings: 37° C. for 1 hr
# Description: as §1, §2, §3
# Subtilisin = test: Peptide conjugate digestion with Subtilisin; settings: 37° C. for 1 hr
# Description: as §1, §2, §3
# Trypsin = test: Peptide conjugate digestion with Trypsin; settings: 37° C. for 1 hr
# Description: as §1, §2, §3
# Resistance to serum = settings: 37° C., human serum in PBS; later times not yet tested
# Description: as §2, §3
# Sequence of Proteinase K (P06873 106-384): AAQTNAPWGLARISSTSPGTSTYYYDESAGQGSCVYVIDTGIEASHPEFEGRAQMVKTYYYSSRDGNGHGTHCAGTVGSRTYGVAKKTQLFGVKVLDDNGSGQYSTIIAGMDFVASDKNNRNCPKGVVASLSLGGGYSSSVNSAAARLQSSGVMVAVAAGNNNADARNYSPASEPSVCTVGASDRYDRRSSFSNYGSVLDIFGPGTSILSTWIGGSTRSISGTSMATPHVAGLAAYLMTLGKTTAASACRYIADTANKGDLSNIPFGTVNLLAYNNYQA
# Sequence of Kalikrein (P03952 20-638): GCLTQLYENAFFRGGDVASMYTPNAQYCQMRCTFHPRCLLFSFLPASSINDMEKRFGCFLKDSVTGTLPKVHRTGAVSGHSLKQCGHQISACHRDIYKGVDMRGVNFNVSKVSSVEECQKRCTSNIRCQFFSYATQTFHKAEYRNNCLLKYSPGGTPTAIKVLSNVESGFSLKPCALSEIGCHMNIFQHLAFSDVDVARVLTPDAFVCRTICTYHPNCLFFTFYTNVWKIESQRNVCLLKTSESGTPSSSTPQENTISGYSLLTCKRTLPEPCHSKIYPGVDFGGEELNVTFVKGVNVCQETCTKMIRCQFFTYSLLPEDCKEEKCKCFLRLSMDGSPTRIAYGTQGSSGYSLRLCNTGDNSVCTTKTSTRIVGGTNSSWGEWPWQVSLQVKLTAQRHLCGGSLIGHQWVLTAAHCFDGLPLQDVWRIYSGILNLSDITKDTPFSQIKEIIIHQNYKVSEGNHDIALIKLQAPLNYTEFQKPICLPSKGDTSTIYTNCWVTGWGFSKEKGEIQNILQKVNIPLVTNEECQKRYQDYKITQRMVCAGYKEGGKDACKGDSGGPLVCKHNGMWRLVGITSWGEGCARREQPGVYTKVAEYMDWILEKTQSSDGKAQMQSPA
smiles,measurement,setting,value
"CC(C)C[C@@H]1NC(=O)[C@H](C)NC(=O)[C@H](CCC(=O)O)NC(=O)[C@H](CC(=O)O)NC(=O)[C@H](C)NC(=O)[C@@H]2CCCN2C(=O)[C@@H]2CSCc3cc(cc(c3)CSC[C@@H](C(=O)NCC(=O)O)NC1=O)CSC[C@H](NC(=O)[C@H](C)N)C(=O)N[C@@H](CO)C(=O)N[C@@H](CC(=O)O)C(=O)N[C@@H](CCCNC(=N)N)C(=O)N[C@@H](Cc1ccccc1)C(=O)N[C@@H](CCCNC(=N)N)C(=O)N[C@@H](CC(N)=O)C(=O)N2 [PK15L1-PK15L2 bicyclic, reference compound] (HELM PEPTIDE1{A.C.S.D.R.F.R.N.C.P.A.D.E.A.L.C.G}|CHEM1{[c1c(C[*:1])cc(C[*:3])cc1C[*:2]]}$PEPTIDE1,CHEM1,2:R3-1:R1|PEPTIDE1,CHEM1,9:R3-1:R2|PEPTIDE1,CHEM1,16:R3-1:R3$$$V2.0)",digestion with Cathepsin G,Cathepsin G; 0.01 μg enzyme per reaction,+++
same,digestion with Cathepsin G,Cathepsin G; 0.1 μg enzyme per reaction,+++
same,digestion with Chymotrypsin,Chymotrypsin; 0.01 μg enzyme per reaction,+++
same,digestion with Chymotrypsin,Chymotrypsin; 0.1 μg enzyme per reaction,+++
same,digestion with Chymotrypsin,Chymotrypsin; 1 μg enzyme per reaction,+++
same,digestion with Kalikrein,Kalikrein; 0.01 μg enzyme per reaction,+++
same,digestion with Kalikrein,Kalikrein; 0.1 μg enzyme per reaction,+++
same,digestion with Kalikrein,Kalikrein; 1 μg enzyme per reaction,+++
same,factor by which the TBMB conjugate is more resistant than the linear peptide to attack by kallikrein,Kalikrein; by comparing different concentrations of enzyme,about 100 fold
same,digestion with Pronase,Pronase; 0.01 μg enzyme per reaction,+++
same,digestion with Pronase,Pronase; 0.1 μg enzyme per reaction,+++
same,digestion with Proteinase K,Proteinase K; 0.01 μg enzyme per reaction,+++
same,digestion with Proteinase K,Proteinase K; 0.1 μg enzyme per reaction,+++
same,digestion with Proteinase K,Proteinase K; 1 μg enzyme per reaction,+++
same,digestion with Subtilisin,Subtilisin; 0.009 μg enzyme per reaction,+++
same,digestion with Subtilisin,Subtilisin; 9 μg enzyme per reaction,−
same,digestion with Trypsin,Trypsin; 0.01 μg enzyme per reaction,+++
same,digestion with Trypsin,Trypsin; 10 μg enzyme per reaction,−
same,time for which proteolysis in serum is resisted,Resistance to serum,at least 48 hours
